Data set [1] in a line: Solubility of nepafenac at reflux temperature in crystallization solvent. In kind it is physicochemical. Particulars: thermodynamic from solid, read-out: Solubility. The protocol: General procedure: Nepafenac was dissolved under magnetical stirring and at reflux in a solvent (See Table 1). The solution was cooled to room temperature under stirring. The solid was filtered and dried. The different conditions and the obtained results are described in Table 1 below.

Data set [2] can be described thus: Density by glass pycnometer in n-heptane. The data set is classed as physicochemical. As to conditions: experimental. As for the experimental part:
Density of nepafenac samples was determined at 25° C. using a 50 mL glass pycnometer. […] The density of the nepafenac sample (ρs) can be determined from the known density of n-heptane (ρH: 0.685 g/cm^3), the weight of the pycnometer filled only with n-heptane (WH^0, the weight of the filled pycnometer containing both nepafenac and n-heptane (WS+H), and the weight of nepafenac (WS):
Density of nepafenac samples was determined for three times, being the listed result the mean of the three values available for each sample.

A short description of data set [3]: Solubility statements (water, n-heptane). The data set is classed as physicochemical. As to conditions: n-heptane at the working temperature (25° C.).
For data set [4] the following is noted: stated as known; cited from earlier work.

Molecules are shown by their SMILES. ≈ marks a conversion by molar mass, not a printed value. Like-named read-outs stand apart in the source and are kept apart here.

What is called solubility is the concentration that dissolves in the medium under given conditions. With `NC(=O)Cc1cccc(C(=O)c2ccccc2)c1N` [nepafenac, 2-amino-3-benzoylbenzeneacetamide, reference compound], the solubility was 21 mg/mL (≈ 82.6 mM) in data set [1] (2-propanol, organic solvent or mixture, in 2-propanol at reflux temperature); 30 to 80 mg/mL (≈ 118 to 315 mM) in data set [1] (mixtures of 2-propanol with up to 40% of water, organic solvent or mixture, in mixtures of 2-propanol with up to 40% of water at reflux temperature); 0.7 mg/mL (≈ 2.75 mM) in data set [1] (water, 100 °C, water, in water at reflux temperature). Besides, the True density in data set [2] is 1.33 g/mL. The Solubility in n-heptane result in data set [3] was “practically insoluble”. Further, the Solubility in water result in data set [4] is “practically insoluble”.

(Values after patent US20100234469A1, “New Crystals Of A Benzoylbenzeneacetamide Derivative” (Medichem, S.A., priority 2009, published 2010).)
